Measurements reported in paper PMC5762315, “Inhibition of polo-like kinase 4 (PLK4): a new therapeutic option for rhabdoid tumors and pediatric medulloblastoma” (Oncotarget, 2017).
Where “and” joins values, the source holds several entries; their conditions need not be identical. Identical values can stand only once.

Legend:
Assay in all cases: biochemical
Assay type in all cases: biochemical
various kinases [1] = target: various kinases (Homo sapiens, UniProt Q86Z02); settings: HIPK1 (Myak)
various kinases [2] = target: various kinases (Homo sapiens, UniProt Q16566); settings: CAMK4 (CaMKIV)
various kinases [3] = target: various kinases (Homo sapiens, UniProt Q02750); settings: MAP2K1 (MEK1)
various kinases [4] = target: various kinases (Homo sapiens, UniProt P08581, M1250T); settings: MET M1250T
various kinases [5] = target: various kinases (Homo sapiens, UniProt P14616); settings: INSRR (IRR)
Sequence of various kinases (Homo sapiens, UniProt P14616) (P14616 27-1297): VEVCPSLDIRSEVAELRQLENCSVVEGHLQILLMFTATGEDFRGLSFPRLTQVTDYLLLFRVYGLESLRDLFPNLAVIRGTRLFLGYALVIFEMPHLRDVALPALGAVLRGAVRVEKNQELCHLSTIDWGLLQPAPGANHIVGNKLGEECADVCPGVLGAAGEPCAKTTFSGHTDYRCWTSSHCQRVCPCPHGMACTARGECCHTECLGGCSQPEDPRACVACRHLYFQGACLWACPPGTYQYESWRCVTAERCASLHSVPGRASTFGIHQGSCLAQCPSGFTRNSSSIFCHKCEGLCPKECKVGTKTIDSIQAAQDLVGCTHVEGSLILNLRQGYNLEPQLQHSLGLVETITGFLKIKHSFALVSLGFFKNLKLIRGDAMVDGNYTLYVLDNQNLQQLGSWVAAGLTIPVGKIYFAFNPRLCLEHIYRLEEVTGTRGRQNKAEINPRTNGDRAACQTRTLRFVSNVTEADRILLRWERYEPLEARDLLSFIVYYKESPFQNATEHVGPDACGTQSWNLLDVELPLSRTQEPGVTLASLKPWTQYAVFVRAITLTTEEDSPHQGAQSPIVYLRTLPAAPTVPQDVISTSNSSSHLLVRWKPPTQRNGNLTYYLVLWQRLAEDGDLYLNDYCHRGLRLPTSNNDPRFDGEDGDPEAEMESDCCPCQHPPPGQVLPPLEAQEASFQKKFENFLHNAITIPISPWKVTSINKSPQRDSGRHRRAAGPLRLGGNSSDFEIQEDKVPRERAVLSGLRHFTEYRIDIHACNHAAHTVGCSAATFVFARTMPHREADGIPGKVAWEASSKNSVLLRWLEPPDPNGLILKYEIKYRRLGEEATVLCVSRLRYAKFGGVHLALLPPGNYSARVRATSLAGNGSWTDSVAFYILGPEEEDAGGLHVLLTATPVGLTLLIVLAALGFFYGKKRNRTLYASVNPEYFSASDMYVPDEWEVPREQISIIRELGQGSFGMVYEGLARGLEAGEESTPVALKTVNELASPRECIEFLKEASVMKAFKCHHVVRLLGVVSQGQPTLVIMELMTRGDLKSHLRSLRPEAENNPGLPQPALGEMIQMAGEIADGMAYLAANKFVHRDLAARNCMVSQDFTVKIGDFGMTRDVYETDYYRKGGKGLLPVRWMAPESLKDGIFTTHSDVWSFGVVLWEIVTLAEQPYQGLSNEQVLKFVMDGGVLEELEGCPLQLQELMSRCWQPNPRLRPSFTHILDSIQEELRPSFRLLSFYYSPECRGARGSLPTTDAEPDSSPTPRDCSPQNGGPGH

various kinases [6] = target: various kinases (Homo sapiens, UniProt P00519, T315I); settings: ABL1 T315I
various kinases [7] = target: various kinases (Homo sapiens, UniProt P07333); settings: CSF1R (FMS)
Sequence of various kinases (Homo sapiens, UniProt P07333) (P07333 20-972): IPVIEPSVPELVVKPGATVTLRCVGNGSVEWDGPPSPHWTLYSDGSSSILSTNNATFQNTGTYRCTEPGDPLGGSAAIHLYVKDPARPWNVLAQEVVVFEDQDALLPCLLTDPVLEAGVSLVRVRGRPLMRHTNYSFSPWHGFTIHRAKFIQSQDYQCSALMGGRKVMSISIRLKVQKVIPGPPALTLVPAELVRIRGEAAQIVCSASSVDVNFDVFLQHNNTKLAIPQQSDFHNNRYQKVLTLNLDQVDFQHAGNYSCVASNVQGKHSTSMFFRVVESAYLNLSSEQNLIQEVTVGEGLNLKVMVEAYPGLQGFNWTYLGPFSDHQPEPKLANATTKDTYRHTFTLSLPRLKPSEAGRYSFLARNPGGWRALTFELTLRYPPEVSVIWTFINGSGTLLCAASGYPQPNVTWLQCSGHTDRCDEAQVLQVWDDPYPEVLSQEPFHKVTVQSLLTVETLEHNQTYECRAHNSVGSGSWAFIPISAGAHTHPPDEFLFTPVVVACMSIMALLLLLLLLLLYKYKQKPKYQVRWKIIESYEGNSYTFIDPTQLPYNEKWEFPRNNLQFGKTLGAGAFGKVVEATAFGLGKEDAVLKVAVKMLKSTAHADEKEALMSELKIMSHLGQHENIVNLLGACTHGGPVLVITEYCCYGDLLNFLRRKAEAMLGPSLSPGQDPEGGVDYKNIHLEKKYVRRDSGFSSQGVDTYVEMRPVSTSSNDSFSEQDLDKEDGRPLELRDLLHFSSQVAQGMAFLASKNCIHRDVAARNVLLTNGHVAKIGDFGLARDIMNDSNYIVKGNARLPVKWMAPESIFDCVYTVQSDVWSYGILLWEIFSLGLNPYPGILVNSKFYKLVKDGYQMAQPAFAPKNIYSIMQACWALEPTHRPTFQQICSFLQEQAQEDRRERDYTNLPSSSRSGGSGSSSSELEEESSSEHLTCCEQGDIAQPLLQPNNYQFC

various kinases [8] = target: various kinases (Homo sapiens, UniProt O75582); settings: kinase RPS6KA5 (MSK1); ZLYTE
Sequence of various kinases (Homo sapiens, UniProt O75582) (O75582 whole entry): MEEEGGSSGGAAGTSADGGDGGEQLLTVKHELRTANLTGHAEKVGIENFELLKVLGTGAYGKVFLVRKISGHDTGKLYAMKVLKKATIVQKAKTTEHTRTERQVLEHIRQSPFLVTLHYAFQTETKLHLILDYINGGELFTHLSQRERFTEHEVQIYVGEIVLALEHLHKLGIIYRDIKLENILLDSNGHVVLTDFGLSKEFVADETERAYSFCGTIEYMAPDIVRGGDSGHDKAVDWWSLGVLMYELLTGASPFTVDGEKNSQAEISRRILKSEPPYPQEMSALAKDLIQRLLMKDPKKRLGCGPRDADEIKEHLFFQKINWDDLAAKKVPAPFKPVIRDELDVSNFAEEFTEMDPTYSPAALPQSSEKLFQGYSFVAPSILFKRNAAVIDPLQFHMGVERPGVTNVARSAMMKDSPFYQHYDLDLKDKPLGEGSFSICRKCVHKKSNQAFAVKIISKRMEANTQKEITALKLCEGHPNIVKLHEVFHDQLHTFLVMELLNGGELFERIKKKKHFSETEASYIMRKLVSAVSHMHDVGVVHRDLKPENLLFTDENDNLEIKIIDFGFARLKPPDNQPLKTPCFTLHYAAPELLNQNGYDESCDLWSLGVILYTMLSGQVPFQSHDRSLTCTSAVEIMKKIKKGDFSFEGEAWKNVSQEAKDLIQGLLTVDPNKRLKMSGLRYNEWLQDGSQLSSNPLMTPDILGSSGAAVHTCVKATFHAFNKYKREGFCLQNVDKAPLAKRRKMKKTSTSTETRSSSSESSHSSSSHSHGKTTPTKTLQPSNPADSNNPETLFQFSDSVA

various kinases [9] = target: T1, various kinases (Homo sapiens, UniProt P41743); settings: kinase PRKCI (PKC iota); ZLYTE
T1 sequence (P41743 1-596): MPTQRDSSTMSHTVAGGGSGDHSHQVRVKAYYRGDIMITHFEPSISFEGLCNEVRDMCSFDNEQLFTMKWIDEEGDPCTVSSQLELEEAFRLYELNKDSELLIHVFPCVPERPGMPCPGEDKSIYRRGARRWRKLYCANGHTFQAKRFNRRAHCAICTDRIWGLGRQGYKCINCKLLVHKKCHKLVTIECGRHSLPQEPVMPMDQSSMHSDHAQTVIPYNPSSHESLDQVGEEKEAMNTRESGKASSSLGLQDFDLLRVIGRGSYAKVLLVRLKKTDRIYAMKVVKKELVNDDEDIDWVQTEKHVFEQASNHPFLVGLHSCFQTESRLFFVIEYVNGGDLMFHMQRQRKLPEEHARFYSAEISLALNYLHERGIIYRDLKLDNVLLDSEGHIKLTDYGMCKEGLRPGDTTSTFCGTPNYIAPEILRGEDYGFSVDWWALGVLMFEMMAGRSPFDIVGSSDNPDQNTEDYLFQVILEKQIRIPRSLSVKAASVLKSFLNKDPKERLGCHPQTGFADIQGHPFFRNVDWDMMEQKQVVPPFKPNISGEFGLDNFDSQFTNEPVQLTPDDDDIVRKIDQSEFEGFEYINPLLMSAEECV

various kinases [10] = target: various kinases (Homo sapiens, UniProt P09769); settings: FGR
various kinases [11] = target: various kinases (Homo sapiens, UniProt Q07002); settings: CDK18/cyclin Y
various kinases [12] = target: various kinases (Homo sapiens, UniProt Q04759); settings: kinase PRKCQ (PKC theta); ZLYTE
Sequence of various kinases (Homo sapiens, UniProt Q04759) (Q04759 whole entry): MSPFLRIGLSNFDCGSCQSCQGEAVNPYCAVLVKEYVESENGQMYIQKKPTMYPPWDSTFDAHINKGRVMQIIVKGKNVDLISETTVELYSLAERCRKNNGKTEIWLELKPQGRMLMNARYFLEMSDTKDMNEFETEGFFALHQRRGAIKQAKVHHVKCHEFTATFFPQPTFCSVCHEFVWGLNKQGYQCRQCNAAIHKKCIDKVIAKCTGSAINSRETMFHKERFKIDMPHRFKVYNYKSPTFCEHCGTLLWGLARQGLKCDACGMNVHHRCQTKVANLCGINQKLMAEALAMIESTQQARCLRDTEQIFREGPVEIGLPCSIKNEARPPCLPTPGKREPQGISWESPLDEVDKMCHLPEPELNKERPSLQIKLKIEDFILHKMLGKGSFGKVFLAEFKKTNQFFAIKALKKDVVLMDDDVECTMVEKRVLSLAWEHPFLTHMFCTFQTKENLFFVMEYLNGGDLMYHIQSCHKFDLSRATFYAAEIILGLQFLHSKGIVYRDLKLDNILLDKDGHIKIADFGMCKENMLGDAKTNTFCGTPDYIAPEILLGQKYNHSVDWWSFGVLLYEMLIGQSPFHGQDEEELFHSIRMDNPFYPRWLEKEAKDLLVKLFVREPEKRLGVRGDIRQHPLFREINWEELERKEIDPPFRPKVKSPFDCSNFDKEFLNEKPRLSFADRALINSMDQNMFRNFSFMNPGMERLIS

various kinases [13] = target: various kinases (Homo sapiens, UniProt P31749); settings: AKT1 (PKB alpha)
Sequence of various kinases (Homo sapiens, UniProt P31749) (P31749 whole entry): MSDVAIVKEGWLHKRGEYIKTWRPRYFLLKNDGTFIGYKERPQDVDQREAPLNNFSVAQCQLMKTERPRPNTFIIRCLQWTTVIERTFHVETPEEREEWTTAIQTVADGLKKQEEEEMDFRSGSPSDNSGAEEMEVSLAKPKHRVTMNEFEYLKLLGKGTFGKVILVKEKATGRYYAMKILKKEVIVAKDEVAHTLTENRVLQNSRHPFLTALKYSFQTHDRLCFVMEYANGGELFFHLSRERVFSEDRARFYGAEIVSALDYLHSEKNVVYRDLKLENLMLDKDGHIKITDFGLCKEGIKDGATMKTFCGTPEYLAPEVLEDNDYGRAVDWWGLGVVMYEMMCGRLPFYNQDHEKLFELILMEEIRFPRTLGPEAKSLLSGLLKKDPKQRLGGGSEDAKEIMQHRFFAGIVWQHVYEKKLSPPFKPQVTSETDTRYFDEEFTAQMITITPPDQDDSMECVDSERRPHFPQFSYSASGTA

various kinases [14] = target: T2, various kinases (Homo sapiens, UniProt Q02156); settings: kinase PRKCE (PKC epsilon); ZLYTE
T2 sequence (Q02156 1-737): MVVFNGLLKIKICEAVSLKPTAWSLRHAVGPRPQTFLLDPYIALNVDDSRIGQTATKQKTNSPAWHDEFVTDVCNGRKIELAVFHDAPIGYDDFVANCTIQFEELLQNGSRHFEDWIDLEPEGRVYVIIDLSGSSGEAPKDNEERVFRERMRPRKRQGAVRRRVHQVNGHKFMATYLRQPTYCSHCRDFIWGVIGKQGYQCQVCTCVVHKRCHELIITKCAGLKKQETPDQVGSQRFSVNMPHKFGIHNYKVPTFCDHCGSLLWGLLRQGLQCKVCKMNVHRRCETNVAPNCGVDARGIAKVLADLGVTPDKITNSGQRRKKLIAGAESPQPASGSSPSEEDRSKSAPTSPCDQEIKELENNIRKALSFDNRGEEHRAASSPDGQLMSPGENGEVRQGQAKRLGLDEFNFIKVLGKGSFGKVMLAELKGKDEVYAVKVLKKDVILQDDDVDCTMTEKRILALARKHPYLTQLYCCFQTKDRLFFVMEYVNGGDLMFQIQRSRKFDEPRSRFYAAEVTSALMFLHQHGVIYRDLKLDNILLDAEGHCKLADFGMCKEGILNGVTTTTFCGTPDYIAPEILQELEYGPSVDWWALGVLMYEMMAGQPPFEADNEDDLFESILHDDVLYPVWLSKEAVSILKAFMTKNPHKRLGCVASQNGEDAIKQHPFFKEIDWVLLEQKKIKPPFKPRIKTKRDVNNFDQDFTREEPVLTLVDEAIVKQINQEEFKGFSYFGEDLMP

various kinases [15] = target: various kinases (Homo sapiens, UniProt Q12866); settings: MERTK (cMER)
various kinases [16] = target: various kinases (Homo sapiens, UniProt Q13164); settings: MAPK7 (ERK5)
Sequence of various kinases (Homo sapiens, UniProt Q13164) (Q13164 whole entry): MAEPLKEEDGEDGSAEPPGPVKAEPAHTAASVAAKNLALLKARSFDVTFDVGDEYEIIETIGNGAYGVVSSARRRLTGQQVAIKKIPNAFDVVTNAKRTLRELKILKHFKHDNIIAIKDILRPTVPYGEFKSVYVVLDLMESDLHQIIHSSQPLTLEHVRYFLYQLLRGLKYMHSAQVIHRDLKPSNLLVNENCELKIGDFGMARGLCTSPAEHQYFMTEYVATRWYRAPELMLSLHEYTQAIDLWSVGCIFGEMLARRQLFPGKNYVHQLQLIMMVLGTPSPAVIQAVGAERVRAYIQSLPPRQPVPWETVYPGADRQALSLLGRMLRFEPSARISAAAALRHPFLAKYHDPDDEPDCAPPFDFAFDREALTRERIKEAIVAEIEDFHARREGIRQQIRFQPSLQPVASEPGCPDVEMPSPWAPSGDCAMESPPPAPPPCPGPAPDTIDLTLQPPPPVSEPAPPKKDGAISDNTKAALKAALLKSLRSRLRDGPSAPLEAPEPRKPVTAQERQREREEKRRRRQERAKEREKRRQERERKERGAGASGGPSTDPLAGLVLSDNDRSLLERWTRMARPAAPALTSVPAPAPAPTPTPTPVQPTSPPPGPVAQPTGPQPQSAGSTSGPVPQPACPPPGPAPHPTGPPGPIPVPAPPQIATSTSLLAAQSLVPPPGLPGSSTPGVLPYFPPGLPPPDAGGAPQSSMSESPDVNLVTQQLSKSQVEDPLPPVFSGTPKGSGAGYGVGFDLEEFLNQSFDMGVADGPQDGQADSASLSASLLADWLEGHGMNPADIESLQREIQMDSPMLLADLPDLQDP

various kinases [17] = target: various kinases (Homo sapiens, UniProt P00533, T790M); settings: EGFR (ErbB1) T790M
various kinases [18] = target: various kinases (Homo sapiens, UniProt P00533, C797S); settings: EGFR (ErbB1) C797S
various kinases [19] = target: various kinases (Homo sapiens, UniProt P36507); settings: MAP2K2 (MEK2)
various kinases [20] = target: various kinases (Homo sapiens, UniProt Q9H422); settings: HIPK3 (YAK1)
various kinases [21] = target: various kinases (Homo sapiens, UniProt P52333); settings: JAK3
Throughout, for % Inhibition Average: test concentration or dose not given here.
Throughout, for % Inhibition Duplicate #1: test concentration or dose not given here.
Throughout, for % Inhibition Duplicate #2: test concentration or dose not given here.

COc1ccc2c(c1)[C@]1(C[C@H]1c1ccc3c(/C=C/c4ccc(CN5C[C@@H](C)O[C@@H](C)C5)cc4)n[nH]c3c1)C(=O)N2 [CFI-400945]
% Inhibition (various kinases [1]): 0%
% Inhibition (various kinases [2]): 7% and -3%
% Inhibition (various kinases [3]): 9%
% Inhibition (various kinases [4]): 11%
% Inhibition (various kinases [5]): 4% and 6%
% Inhibition (various kinases [6]): 83% and 78%
IC50 (various kinases [6]): 27.2 nM
% Inhibition (various kinases [7]): 14% and 15%
% Inhibition Average (various kinases [8]): 3%
% Inhibition Duplicate #1 (various kinases [8]): 2%
% Inhibition Duplicate #2 (various kinases [8]): 4%
% Inhibition Average (various kinases [9]): 6%
% Inhibition Duplicate #1 (various kinases [9]): 0%
% Inhibition Duplicate #2 (various kinases [9]): 11%
% Inhibition (various kinases [10]): 28% and 26%
% Inhibition (various kinases [11]): 5% and 4%
% Inhibition Average (various kinases [12]): 7%
% Inhibition Duplicate #1 (various kinases [12]): 1%
% Inhibition Duplicate #2 (various kinases [12]): 13%
% Inhibition (various kinases [13]): 4% and 3%
% Inhibition Average (various kinases [14]): -2%
% Inhibition Duplicate #1 (various kinases [14]): -5%
% Inhibition Duplicate #2 (various kinases [14]): 1%
% Inhibition (various kinases [15]): -2% and 1%
% Inhibition (various kinases [16]): -2% and 0%
% Inhibition (various kinases [17]): 3%
% Inhibition (various kinases [18]): 11% and 5%
% Inhibition (various kinases [19]): 7%
% Inhibition (various kinases [20]): 2% and 3%
% Inhibition (various kinases [21]): 23%
